In PubChem BioAssay AID328 (DTP/NCI, 2004) one finds T/C data, which are given here for 13 molecules.

Molecules are shown by their SMILES. “And” between values parts separate entries of the source, which are not always exact repeats. Equal entries are not always repeated. Toxic doses and inconclusive results are not listed.

Assay [1] deals with BDF1 mice, P388 leukemia ip. As to the kind of experiment: NCI In Vivo Anticancer Drug Screen. Data for tumor model P388 Leukemia (intraperitoneal) in B6D2F1 (BDF1) mice. To be noted: endpoint: mean survival time, higher = longer survival. The essentials:
(§1)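 Steps: implant the tumour, treat one group with compound and another with vehicle, record survival, then divide treated by control.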

Assay [2] relates to BDF1 mice, P388 leukemia ip, median survival T/C. Described as above. As to conditions: endpoint: median survival time, higher = longer survival. The essentials:
as §1

[3] abbreviates: dose: 400.0 mg/kg/injection, schedule: Q04DX003 (ip), vehicle: saline.
Setting [4] is: dose: 25.0 mg/kg/injection, schedule: Q04DX003 (ip), vehicle: saline.
[5] abbreviates: dose: 50.0 mg/kg/injection, schedule: Q04DX003 (ip), vehicle: saline.
Where [6] appears, read: dose: 50.0 mg/kg/injection, schedule: Q01DX009 (ip), vehicle: saline with Tween-80.
[7] abbreviates: dose: 100.0 mg/kg/injection, schedule: Q01DX009 (ip), vehicle: saline with Tween-80.
The mark [8] stands for this setting: dose: 200.0 mg/kg/injection, schedule: Q01DX009 (ip), vehicle: saline with Tween-80.

For the molecule `CCN(CC)CCCC(C)NC(=O)c1cccc2c(N)cccc12` (stereo unspecified), the T/C in assay [1] (dose: 25.0 mg/kg/injection, schedule: Q01DX009 (ip), vehicle: water) was 98 % of control; in assay [1] (dose: 50.0 mg/kg/injection, schedule: Q01DX009 (ip), vehicle: water), 106 % of control; in assay [1] (dose: 100.0 mg/kg/injection, schedule: Q01DX009 (ip), vehicle: water), 93 % of control; in assay [1] (dose: 200.0 mg/kg/injection, schedule: Q01DX009 (ip), vehicle: water), 91 % of control; in assay [1] (dose: 400.0 mg/kg/injection, schedule: Q01DX009 (ip), vehicle: water) it was 110 % of control; in assay [2] (dose: 25.0 mg/kg/injection, schedule: Q04DX003 (ip), vehicle: water), 91 % of control. Also, the T/C is 106 % of control in assay [2] (dose: 50.0 mg/kg/injection, schedule: Q04DX003 (ip), vehicle: water); 97 % of control in assay [2] (dose: 100.0 mg/kg/injection, schedule: Q04DX003 (ip), vehicle: water); 100 % of control in assay [2] (dose: 200.0 mg/kg/injection, schedule: Q04DX003 (ip), vehicle: water); 104 % of control in assay [2] (dose: 400.0 mg/kg/injection, schedule: Q04DX003 (ip), vehicle: water).

`CC1=C(C)C(=O)O[C@@H]([C@](C)(O)[C@]2(O)CC[C@@]3(O)[C@@H]4C[C@H]5O[C@]56CC=CC(=O)[C@]6(C)[C@H]4CC[C@]23C)C1`: the T/C was 114 % of control in assay [1] (dose: 50.0 mg/kg/injection, schedule: Q02DX003 (ip), vehicle: saline) and 117 % of control in assay [1] (dose: 100.0 mg/kg/injection, schedule: Q02DX003 (ip), vehicle: saline).

As for `COc1ccc(Nc2cccc(Cl)c2)c(C(=O)O)c1`, the T/C was 122 % of control in assay [2] (dose: 20.0 mg/kg/injection, schedule: Q01DX001 (ip), vehicle: Klucel (hydroxypropylcellulose) (HPC)); 100 % of control in assay [2] (dose: 40.0 mg/kg/injection, schedule: Q01DX001 (ip), vehicle: Klucel (hydroxypropylcellulose) (HPC)); 104 % of control in assay [2] (dose: 75.0 mg/kg/injection, schedule: Q01DX001 (ip), vehicle: Klucel (hydroxypropylcellulose) (HPC)); 100 % of control in assay [2] (dose: 150.0 mg/kg/injection, schedule: Q01DX001 (ip), vehicle: Klucel (hydroxypropylcellulose) (HPC)).

For the molecule `Cc1cc(C)c(OC(=O)CNC(=O)C(C)NC(=O)OC(C)(C)C)c(C)c1` (stereo unspecified), the T/C in assay [2] (dose: 50.0 mg/kg/injection, schedule: Q01DX005 (ip), vehicle: Klucel (hydroxypropylcellulose) (HPC)) is 91 % of control; in assay [2] (dose: 100.0 mg/kg/injection, schedule: Q01DX005 (ip), vehicle: Klucel (hydroxypropylcellulose) (HPC)), 97 % of control; in assay [2] (dose: 200.0 mg/kg/injection, schedule: Q01DX005 (ip), vehicle: Klucel (hydroxypropylcellulose) (HPC)), 91 % of control.

Take `CCOc1ccc(N2C(=O)CC(Sc3ccccc3N)C2=O)cc1` (stereo unspecified): the T/C in assay [2] (dose: 100.0 mg/kg/injection, schedule: Q01DX001 (ip), vehicle: Klucel (hydroxypropylcellulose) (HPC)) is 105 % of control; in assay [2] (dose: 100.0 mg/kg/injection, schedule: Q04DX003 (ip), vehicle: Klucel (hydroxypropylcellulose) (HPC)), 100 % of control; in assay [2] (dose: 200.0 mg/kg/injection, schedule: Q01DX001 (ip), vehicle: Klucel (hydroxypropylcellulose) (HPC)), 100 % of control; in assay [2] (dose: 200.0 mg/kg/injection, schedule: Q04DX003 (ip), vehicle: Klucel (hydroxypropylcellulose) (HPC)) it was 90 % of control; in assay [2] (dose: 400.0 mg/kg/injection, schedule: Q01DX001 (ip), vehicle: Klucel (hydroxypropylcellulose) (HPC)), 100 % of control; in assay [2] (dose: 400.0 mg/kg/injection, schedule: Q04DX003 (ip), vehicle: Klucel (hydroxypropylcellulose) (HPC)), 100 % of control.

With `COC1CCC(OC2CC(C3(C)CCC4(CC(O)C(C)C(C(C)/C=C(\C)C(=O)C(C)CC(C)C(=O)O)O4)O3)OC3(OC(C4OC(O)(CO)C(C)CC4C)CC3C)C2C)OC1C` (stereo unspecified), the T/C is 111 % of control in assay [2] (dose: 62.5 micrograms/kg/injection, schedule: Q01DX009 (ip), vehicle: Klucel (hydroxypropylcellulose) (HPC)); 97 % of control in assay [2] (dose: 125.0 micrograms/kg/injection, schedule: Q01DX009 (ip), vehicle: Klucel (hydroxypropylcellulose) (HPC)); 97 % of control in assay [2] (dose: 250.0 micrograms/kg/injection, schedule: Q01DX009 (ip), vehicle: Klucel (hydroxypropylcellulose) (HPC)); 97 % of control in assay [2] (dose: 500.0 micrograms/kg/injection, schedule: Q01DX009 (ip), vehicle: Klucel (hydroxypropylcellulose) (HPC)).

Consider `C1CSCCO1.[Cu+2].[O-][Cl+3]([O-])([O-])O`, for which the T/C is 97 % of control in assay [2] (dose: 6.25 mg/kg/injection, schedule: Q04DX003 (ip), vehicle: saline with Tween-80); 99 % of control in assay [2] (dose: 12.5 mg/kg/injection, schedule: Q04DX003 (ip), vehicle: saline with Tween-80); 108 % of control in assay [2] (dose: 25.0 mg/kg/injection, schedule: Q04DX003 (ip), vehicle: saline with Tween-80).

In the case of `CCOC(/C=C/c1ccccc1)OCC`, the T/C was 90 % of control in assay [2] (dose: 264.0 mg/kg/injection, schedule: Q04DX003 (ip), vehicle: saline); 100 % of control in assay [2] (setting [3]); 113 % of control in assay [2] (dose: 600.0 mg/kg/injection, schedule: Q04DX003 (ip), vehicle: saline).

For `CSCC(N)CO` (stereo unspecified), the T/C in assay [2] (setting [4]) was 104 % of control; in assay [2] (setting [5]), 111 % of control and 116 % of control; in assay [2] (dose: 100.0 mg/kg/injection, schedule: Q04DX003 (ip), vehicle: saline) it was 116 % of control; in assay [2] (dose: 200.0 mg/kg/injection, schedule: Q04DX003 (ip), vehicle: saline) it was 109 % of control and 111 % of control; in assay [2] (setting [3]), 90 % of control and 120 % of control.

As for `CC(=O)Nc1ccc2c(c1)OCO2`, the T/C in assay [2] (setting [6]) was 104 % of control; in assay [2] (setting [7]), 104 % of control; in assay [2] (dose: 100.0 mg/kg/injection, schedule: Q04DX003 (ip), vehicle: saline with Tween-80), 95 % of control; in assay [2] (setting [8]), 90 % of control; in assay [2] (dose: 200.0 mg/kg/injection, schedule: Q04DX003 (ip), vehicle: saline with Tween-80), 113 % of control.

With `CCC(C(=O)O)C(=O)O.[NH-]CC[NH-].[Pt+2]`, the T/C is 100 % of control in assay [2] (setting [4]); 118 % of control in assay [2] (dose: 33.0 mg/kg/injection, schedule: Q04DX003 (ip), vehicle: saline); 154 % of control in assay [2] (setting [5]).

Regarding `S=c1nc2[nH]c3ccccc3c2n[nH]1`, the T/C was 100 % of control in assay [2] (dose: 6.25 mg/kg/injection, schedule: Q01DX009 (ip), vehicle: saline with Tween-80); 97 % of control in assay [2] (dose: 12.5 mg/kg/injection, schedule: Q01DX009 (ip), vehicle: saline with Tween-80); 88 % of control in assay [2] (dose: 25.0 mg/kg/injection, schedule: Q01DX009 (ip), vehicle: saline with Tween-80); 96 % of control in assay [2] (setting [6]); 98 % of control in assay [2] (setting [7]); 96 % of control in assay [2] (setting [8]).

For the molecule `O=C1OC(=O)C2C3C=CC(O3)C12` (stereo unspecified), the T/C in assay [2] (dose: 3.28 mg/kg/injection, schedule: Q04DX003 (ip), vehicle: saline) was 100 % of control; in assay [2] (dose: 6.25 mg/kg/injection, schedule: Q01DX009 (ip), vehicle: saline), 110 % of control; in assay [2] (dose: 6.56 mg/kg/injection, schedule: Q04DX003 (ip), vehicle: saline), 100 % of control; in assay [2] (dose: 12.5 mg/kg/injection, schedule: Q01DX009 (ip), vehicle: saline), 104 % of control and 105 % of control; in assay [2] (dose: 13.12 mg/kg/injection, schedule: Q04DX003 (ip), vehicle: saline), 100 % of control; in assay [2] (dose: 25.0 mg/kg/injection, schedule: Q01DX009 (ip), vehicle: saline), 90 % of control and 104 % of control. Further, the T/C in assay [2] (dose: 35.0 mg/kg/injection, schedule: Q01DX009 (ip), vehicle: saline) is 104 % of control.
